“Also recorded” adds a separate entry of the source.
Key:
EPHA8 = target: T1, EPHA8 (Homo sapiens, UniProt P29322); assay: KINOMEscan; assay type: binding; conditions: read-out: %Ctrl @ 1000 nM
T1 construct: purchased DiscoveRx KINOMEscan

YANK2 = target: T2, YANK2 (Homo sapiens, UniProt Q9NY57); assay: KINOMEscan; assay type: binding; conditions: read-out: %Ctrl @ 1000 nM
T2 construct: purchased DiscoveRx KINOMEscan

PKMYT1 = target: T3, PKMYT1 (Homo sapiens, UniProt Q99640); assay: KINOMEscan; assay type: binding; conditions: read-out: %Ctrl @ 1000 nM
T3 construct: purchased DiscoveRx KINOMEscan

YSK4 = target: T4, YSK4 (Homo sapiens, UniProt Q56UN5); assay: KINOMEscan; assay type: binding; conditions: read-out: %Ctrl @ 1000 nM
T4 construct: purchased DiscoveRx

STK39 = target: T5, STK39 (Homo sapiens, UniProt Q9UEW8); assay: KINOMEscan; assay type: binding; conditions: read-out: %Ctrl @ 1000 nM
T5 construct: purchased DiscoveRx KINOMEscan

MKK7 = target: T6, MKK7 (Homo sapiens, UniProt O14733); assay: KINOMEscan; assay type: binding; conditions: read-out: %Ctrl @ 1000 nM
T6 construct: purchased DiscoveRx KINOMEscan

[1] = target: T7, RSK3(Kin.Dom.1-N-terminal) (Homo sapiens, UniProt Q15349); assay: KINOMEscan; assay type: binding; conditions: read-out: %Ctrl @ 1000 nM
T7 construct: RSK3(Kin.Dom.1-N-terminal); purchased DiscoveRx KINOMEscan

LIMK1 = target: T8, LIMK1 (Homo sapiens, UniProt P53667); assay: KINOMEscan; assay type: binding; conditions: read-out: %Ctrl @ 1000 nM
T8 construct: purchased DiscoveRx KINOMEscan

ROCK1 = target: T9, ROCK1 (Homo sapiens, UniProt Q13464); assay: KINOMEscan; assay type: binding; conditions: read-out: %Ctrl @ 1000 nM
T9 construct: purchased DiscoveRx KINOMEscan

ROS1 = target: T10, ROS1 (Homo sapiens, UniProt P08922); assay: KINOMEscan; assay type: binding; conditions: read-out: %Ctrl @ 1000 nM
T10 construct: purchased DiscoveRx KINOMEscan

MEK3 = target: T11, MEK3 (Homo sapiens, UniProt P46734); assay: KINOMEscan; assay type: binding; conditions: read-out: %Ctrl @ 1000 nM
T11 construct: purchased DiscoveRx KINOMEscan

EGFR(L861Q) = target: T12, EGFR(L861Q) (Homo sapiens, UniProt P00533, L861Q); assay: KINOMEscan; assay type: binding; conditions: read-out: %Ctrl @ 1000 nM
T12 construct: purchased DiscoveRx KINOMEscan

LZK = target: T13, LZK (Homo sapiens, UniProt O43283); assay: KINOMEscan; assay type: binding; conditions: read-out: %Ctrl @ 1000 nM
T13 construct: purchased DiscoveRx KINOMEscan

STK35 = target: T14, STK35 (Homo sapiens, UniProt Q8TDR2); assay: KINOMEscan; assay type: binding; conditions: read-out: %Ctrl @ 1000 nM
T14 construct: purchased DiscoveRx KINOMEscan

FLT3(D835H) = target: T15, FLT3(D835H) (Homo sapiens, UniProt P36888, D835H); assay: KINOMEscan; assay type: binding; conditions: read-out: %Ctrl @ 1000 nM
T15 construct: purchased DiscoveRx KINOMEscan

PIK3CA(H1047L) = target: T16, PIK3CA(H1047L) (Homo sapiens, UniProt P42336, H1047L); assay: KINOMEscan; assay type: binding; conditions: read-out: %Ctrl @ 1000 nM
T16 construct: purchased DiscoveRx KINOMEscan

HIPK4 = target: T17, HIPK4 (Homo sapiens, UniProt Q8NE63); assay: KINOMEscan; assay type: binding; conditions: read-out: %Ctrl @ 1000 nM
T17 construct: purchased DiscoveRx KINOMEscan

CAMK2A = target: T18, CAMK2A (Homo sapiens, UniProt Q9UQM7); assay: KINOMEscan; assay type: binding; conditions: read-out: %Ctrl @ 1000 nM
T18 construct: purchased DiscoveRx KINOMEscan

BUB1 = target: T19, BUB1 (Homo sapiens, UniProt O43683); assay: KINOMEscan; assay type: binding; conditions: read-out: %Ctrl @ 1000 nM
T19 construct: purchased DiscoveRx KINOMEscan

FLT4 = target: T20, FLT4 (Homo sapiens, UniProt P35916); assay: KINOMEscan; assay type: binding; conditions: read-out: %Ctrl @ 1000 nM
T20 construct: purchased DiscoveRx KINOMEscan

[2] = target: T21, RSK1(Kin.Dom.1-N-terminal) (Homo sapiens, UniProt Q15418); assay: KINOMEscan; assay type: binding; conditions: read-out: %Ctrl @ 1000 nM
T21 construct: RSK1(Kin.Dom.1-N-terminal); purchased DiscoveRx KINOMEscan

PIK3CA(E542K) = target: T22, PIK3CA(E542K) (Homo sapiens, UniProt P42336, E542K); assay: KINOMEscan; assay type: binding; conditions: read-out: %Ctrl @ 1000 nM
T22 construct: purchased DiscoveRx KINOMEscan

MAP4K3 = target: T23, MAP4K3 (Homo sapiens, UniProt Q8IVH8); assay: KINOMEscan; assay type: binding; conditions: read-out: %Ctrl @ 1000 nM
T23 construct: purchased DiscoveRx KINOMEscan

HIPK3 = target: T24, HIPK3 (Homo sapiens, UniProt Q9H422); assay: KINOMEscan; assay type: binding; conditions: read-out: %Ctrl @ 1000 nM
T24 construct: purchased DiscoveRx KINOMEscan

PIK3CA(Q546K) = target: T25, PIK3CA(Q546K) (Homo sapiens, UniProt P42336, Q546K); assay: KINOMEscan; assay type: binding; conditions: read-out: %Ctrl @ 1000 nM
T25 construct: purchased DiscoveRx KINOMEscan

SMYD2 = SMYD2 (Homo sapiens, UniProt Q9NRG4); assay: AHNAK methylation Western blot in MDA-MB231 cells overexpressing SMYD2; assay type: cell-based; parameters: expressed in transfected cells
MYLK4 = target: T26, MYLK4 (Homo sapiens, UniProt Q86YV6); assay: KINOMEscan; assay type: binding; conditions: read-out: %Ctrl @ 1000 nM
T26 construct: purchased DiscoveRx KINOMEscan

ALK(L1196M) = target: T27, ALK(L1196M) (Homo sapiens, UniProt Q9UM73, L1196M); assay: KINOMEscan; assay type: binding; conditions: read-out: %Ctrl @ 1000 nM
T27 construct: purchased DiscoveRx KINOMEscan

BIKE = target: T28, BIKE (Homo sapiens, UniProt Q9NSY1); assay: KINOMEscan; assay type: binding; conditions: read-out: %Ctrl @ 1000 nM
T28 construct: purchased DiscoveRx KINOMEscan

KIT(V559D,V654A) = target: T29, KIT(V559D,V654A) (Homo sapiens, UniProt P10721, V559D/V654A); assay: KINOMEscan; assay type: binding; conditions: read-out: %Ctrl @ 1000 nM
T29 construct: purchased DiscoveRx KINOMEscan

STK33 = target: T30, STK33 (Homo sapiens, UniProt Q9BYT3); assay: KINOMEscan; assay type: binding; conditions: read-out: %Ctrl @ 1000 nM
T30 construct: purchased DiscoveRx KINOMEscan

PRKCE = target: T31, PRKCE (Homo sapiens, UniProt Q02156); assay: KINOMEscan; assay type: binding; conditions: read-out: %Ctrl @ 1000 nM
T31 construct: purchased DiscoveRx KINOMEscan

CAMK2B = target: T32, CAMK2B (Homo sapiens, UniProt Q13554); assay: KINOMEscan; assay type: binding; conditions: read-out: %Ctrl @ 1000 nM
T32 construct: purchased DiscoveRx KINOMEscan

MRCKB = target: T33, MRCKB (Homo sapiens, UniProt Q9Y5S2); assay: KINOMEscan; assay type: binding; conditions: read-out: %Ctrl @ 1000 nM
T33 construct: purchased DiscoveRx KINOMEscan

[3] = target: T34, ABL1(E255K)-phosphorylated (Homo sapiens, UniProt P00519, E255K); assay: KINOMEscan; assay type: binding; conditions: read-out: %Ctrl @ 1000 nM
T34 construct: purchased DiscoveRx (KINOMEscan service)

PLK4 = target: T35, PLK4 (Homo sapiens, UniProt O00444); assay: KINOMEscan; assay type: binding; conditions: read-out: %Ctrl @ 1000 nM
T35 construct: purchased DiscoveRx KINOMEscan

ERBB3 = target: T36, ERBB3 (Homo sapiens, UniProt P21860); assay: KINOMEscan; assay type: binding; conditions: read-out: %Ctrl @ 1000 nM
T36 construct: purchased DiscoveRx KINOMEscan

SG110 = target: T37, SG110 (Homo sapiens, UniProt P0C264); assay: KINOMEscan; assay type: binding; conditions: read-out: %Ctrl @ 1000 nM
T37 construct: purchased DiscoveRx KINOMEscan

FGFR4 = target: T38, FGFR4 (Homo sapiens, UniProt P22455); assay: KINOMEscan; assay type: binding; conditions: read-out: %Ctrl @ 1000 nM
T38 construct: purchased DiscoveRx KINOMEscan

ABL1-nonphosphorylated = target: T39, ABL1-nonphosphorylated (Homo sapiens, UniProt P00519); assay: KINOMEscan; assay type: binding; conditions: read-out: %Ctrl @ 1000 nM
T39 construct: purchased DiscoveRx

TAOK3 = target: T40, TAOK3 (Homo sapiens, UniProt Q9H2K8); assay: KINOMEscan; assay type: binding; conditions: read-out: %Ctrl @ 1000 nM
T40 construct: purchased DiscoveRx KINOMEscan

CAMK1D = target: T41, CAMK1D (Homo sapiens, UniProt Q8IU85); assay: KINOMEscan; assay type: binding; conditions: read-out: %Ctrl @ 1000 nM
T41 construct: purchased DiscoveRx KINOMEscan
T41 sequence (Q8IU85 whole entry): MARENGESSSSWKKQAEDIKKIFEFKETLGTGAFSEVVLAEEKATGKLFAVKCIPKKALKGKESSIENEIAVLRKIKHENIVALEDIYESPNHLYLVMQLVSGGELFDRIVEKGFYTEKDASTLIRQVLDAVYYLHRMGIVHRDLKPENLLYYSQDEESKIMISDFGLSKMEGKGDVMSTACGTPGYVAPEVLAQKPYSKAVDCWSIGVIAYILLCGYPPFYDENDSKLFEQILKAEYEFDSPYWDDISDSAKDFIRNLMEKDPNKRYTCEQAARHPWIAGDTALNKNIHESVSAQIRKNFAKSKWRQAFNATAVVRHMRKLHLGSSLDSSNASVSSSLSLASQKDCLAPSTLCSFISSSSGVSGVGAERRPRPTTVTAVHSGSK

SMYD2, sequence (Q9NRG4 whole entry): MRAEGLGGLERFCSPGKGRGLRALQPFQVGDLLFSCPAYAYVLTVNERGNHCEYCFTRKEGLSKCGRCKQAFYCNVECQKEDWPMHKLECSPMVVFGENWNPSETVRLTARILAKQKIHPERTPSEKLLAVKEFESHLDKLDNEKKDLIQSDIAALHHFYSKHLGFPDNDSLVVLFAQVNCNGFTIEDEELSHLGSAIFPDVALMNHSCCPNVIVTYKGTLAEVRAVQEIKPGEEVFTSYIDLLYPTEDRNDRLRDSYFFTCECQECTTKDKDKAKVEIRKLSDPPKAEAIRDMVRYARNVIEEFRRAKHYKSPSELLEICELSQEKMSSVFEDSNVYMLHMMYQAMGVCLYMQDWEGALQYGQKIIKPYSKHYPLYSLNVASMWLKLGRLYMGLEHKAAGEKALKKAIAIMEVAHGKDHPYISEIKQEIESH
T25 sequence (P42336 whole entry Q546K): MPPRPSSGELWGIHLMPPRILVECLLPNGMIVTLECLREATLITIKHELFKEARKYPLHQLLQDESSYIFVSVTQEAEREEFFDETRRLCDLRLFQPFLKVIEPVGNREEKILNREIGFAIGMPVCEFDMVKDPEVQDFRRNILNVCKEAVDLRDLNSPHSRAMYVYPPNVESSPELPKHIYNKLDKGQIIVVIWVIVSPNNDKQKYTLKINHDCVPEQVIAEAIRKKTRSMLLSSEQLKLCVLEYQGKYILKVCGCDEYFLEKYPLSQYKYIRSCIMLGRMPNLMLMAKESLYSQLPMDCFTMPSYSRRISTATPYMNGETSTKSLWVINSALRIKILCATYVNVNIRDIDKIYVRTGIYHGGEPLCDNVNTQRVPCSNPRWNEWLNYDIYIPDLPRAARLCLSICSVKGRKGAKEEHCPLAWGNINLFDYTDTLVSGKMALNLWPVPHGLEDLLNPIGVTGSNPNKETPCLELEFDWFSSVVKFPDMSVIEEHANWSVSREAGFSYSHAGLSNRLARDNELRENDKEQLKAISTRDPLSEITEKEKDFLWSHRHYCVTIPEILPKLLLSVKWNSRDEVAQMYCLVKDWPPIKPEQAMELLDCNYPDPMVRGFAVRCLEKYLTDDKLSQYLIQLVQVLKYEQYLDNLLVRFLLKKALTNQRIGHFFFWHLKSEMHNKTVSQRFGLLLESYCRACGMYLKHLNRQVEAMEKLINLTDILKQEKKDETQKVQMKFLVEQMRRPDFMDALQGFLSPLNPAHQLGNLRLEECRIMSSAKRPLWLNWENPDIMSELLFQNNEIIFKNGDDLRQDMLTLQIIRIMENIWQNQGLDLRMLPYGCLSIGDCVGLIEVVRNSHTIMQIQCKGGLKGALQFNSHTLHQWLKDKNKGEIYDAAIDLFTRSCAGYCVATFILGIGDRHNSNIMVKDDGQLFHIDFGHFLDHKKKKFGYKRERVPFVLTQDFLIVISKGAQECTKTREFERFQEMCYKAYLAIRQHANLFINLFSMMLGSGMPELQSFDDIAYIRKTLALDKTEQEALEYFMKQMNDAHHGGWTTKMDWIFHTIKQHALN
T4 sequence (Q56UN5 whole entry): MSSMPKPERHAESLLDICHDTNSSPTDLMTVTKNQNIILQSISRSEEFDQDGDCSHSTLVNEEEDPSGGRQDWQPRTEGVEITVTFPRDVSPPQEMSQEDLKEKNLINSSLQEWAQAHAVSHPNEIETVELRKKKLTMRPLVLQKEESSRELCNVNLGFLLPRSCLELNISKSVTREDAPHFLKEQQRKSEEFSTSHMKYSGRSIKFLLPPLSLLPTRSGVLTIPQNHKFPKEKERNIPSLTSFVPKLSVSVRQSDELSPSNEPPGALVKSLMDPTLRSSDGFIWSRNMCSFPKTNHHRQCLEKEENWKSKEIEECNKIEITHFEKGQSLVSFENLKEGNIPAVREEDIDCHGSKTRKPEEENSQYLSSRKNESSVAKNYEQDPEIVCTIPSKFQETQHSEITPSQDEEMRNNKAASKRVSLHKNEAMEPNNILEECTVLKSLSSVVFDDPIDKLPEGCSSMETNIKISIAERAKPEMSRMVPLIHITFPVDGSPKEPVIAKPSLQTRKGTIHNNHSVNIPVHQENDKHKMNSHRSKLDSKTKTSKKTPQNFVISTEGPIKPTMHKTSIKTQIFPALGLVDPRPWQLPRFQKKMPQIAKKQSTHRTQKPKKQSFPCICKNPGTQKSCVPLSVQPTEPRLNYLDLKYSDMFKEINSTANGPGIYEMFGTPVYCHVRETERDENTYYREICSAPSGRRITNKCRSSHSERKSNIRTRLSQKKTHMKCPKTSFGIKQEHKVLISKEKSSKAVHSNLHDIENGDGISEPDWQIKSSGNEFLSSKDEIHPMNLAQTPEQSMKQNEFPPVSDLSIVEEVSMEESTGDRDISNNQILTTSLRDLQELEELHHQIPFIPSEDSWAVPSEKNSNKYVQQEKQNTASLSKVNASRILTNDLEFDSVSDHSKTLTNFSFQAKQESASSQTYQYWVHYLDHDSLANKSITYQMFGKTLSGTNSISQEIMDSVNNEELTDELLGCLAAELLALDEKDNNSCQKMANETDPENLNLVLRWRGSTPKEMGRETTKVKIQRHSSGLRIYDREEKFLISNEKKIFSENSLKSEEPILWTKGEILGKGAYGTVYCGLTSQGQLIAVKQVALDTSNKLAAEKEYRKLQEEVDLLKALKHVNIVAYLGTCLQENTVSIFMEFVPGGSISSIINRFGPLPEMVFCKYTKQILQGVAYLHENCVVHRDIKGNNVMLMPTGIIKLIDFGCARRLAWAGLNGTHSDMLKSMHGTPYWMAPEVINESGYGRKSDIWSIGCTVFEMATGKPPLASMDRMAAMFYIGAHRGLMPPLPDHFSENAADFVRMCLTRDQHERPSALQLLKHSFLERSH
T13 sequence (O43283 whole entry): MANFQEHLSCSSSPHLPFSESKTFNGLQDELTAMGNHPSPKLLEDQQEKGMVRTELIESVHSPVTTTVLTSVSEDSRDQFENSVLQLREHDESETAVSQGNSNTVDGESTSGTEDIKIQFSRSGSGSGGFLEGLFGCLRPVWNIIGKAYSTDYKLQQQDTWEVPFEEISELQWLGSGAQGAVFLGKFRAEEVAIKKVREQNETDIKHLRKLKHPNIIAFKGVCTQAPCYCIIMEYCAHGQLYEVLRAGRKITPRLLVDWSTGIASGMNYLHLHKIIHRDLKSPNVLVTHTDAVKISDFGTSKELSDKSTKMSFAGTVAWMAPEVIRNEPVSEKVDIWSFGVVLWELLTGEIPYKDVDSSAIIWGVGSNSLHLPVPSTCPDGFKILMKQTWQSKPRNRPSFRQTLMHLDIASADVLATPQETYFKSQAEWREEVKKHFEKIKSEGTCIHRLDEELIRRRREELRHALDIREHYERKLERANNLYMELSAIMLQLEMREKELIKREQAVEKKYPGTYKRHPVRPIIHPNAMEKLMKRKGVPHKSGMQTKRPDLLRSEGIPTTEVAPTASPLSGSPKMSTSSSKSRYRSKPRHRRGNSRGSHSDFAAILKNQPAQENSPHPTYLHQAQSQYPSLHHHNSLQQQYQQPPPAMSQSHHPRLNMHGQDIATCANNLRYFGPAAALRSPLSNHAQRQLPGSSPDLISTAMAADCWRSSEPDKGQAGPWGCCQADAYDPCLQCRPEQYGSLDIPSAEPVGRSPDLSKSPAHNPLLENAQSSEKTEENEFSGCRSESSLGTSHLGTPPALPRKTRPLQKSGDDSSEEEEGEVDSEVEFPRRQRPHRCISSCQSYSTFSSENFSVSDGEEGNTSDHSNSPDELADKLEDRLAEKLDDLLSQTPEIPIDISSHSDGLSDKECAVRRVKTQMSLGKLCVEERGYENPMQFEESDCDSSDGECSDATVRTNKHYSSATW
T37 sequence (P0C264 whole entry): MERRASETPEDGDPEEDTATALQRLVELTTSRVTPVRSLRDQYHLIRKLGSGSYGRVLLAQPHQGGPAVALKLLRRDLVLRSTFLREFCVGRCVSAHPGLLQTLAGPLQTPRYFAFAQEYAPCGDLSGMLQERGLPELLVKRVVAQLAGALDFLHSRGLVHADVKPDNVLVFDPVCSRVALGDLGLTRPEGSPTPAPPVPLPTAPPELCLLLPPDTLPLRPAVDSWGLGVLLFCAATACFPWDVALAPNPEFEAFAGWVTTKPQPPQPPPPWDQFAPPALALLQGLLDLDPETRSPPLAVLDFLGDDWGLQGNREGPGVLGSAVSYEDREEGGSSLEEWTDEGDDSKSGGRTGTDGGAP
T3 sequence (Q99640 whole entry): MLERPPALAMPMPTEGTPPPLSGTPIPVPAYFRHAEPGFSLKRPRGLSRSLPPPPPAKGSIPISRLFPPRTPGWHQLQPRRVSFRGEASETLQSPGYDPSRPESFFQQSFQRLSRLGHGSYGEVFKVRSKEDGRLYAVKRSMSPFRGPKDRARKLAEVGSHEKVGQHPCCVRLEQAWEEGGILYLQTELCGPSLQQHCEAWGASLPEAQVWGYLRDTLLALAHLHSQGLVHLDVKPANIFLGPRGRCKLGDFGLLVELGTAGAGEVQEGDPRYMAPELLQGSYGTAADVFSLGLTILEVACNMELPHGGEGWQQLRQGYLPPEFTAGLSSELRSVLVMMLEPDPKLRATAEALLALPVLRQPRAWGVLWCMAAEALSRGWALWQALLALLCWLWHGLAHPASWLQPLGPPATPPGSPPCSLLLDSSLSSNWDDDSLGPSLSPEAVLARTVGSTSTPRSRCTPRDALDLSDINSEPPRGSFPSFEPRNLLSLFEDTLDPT

CCN(C(=O)CO)[C@H]1CN(/C(=N\C#N)Nc2cccc(OC(F)F)c2)N=C1c1ccc(Cl)c(Cl)c1 [(S)-4]
remaining binding at 1 µM (EPHA8): 94% | remaining binding at 1 µM (YANK2): 98% | remaining binding at 1 µM (PKMYT1): 100% | remaining binding at 1 µM (YSK4): 93% | remaining binding at 1 µM (STK39): 77% | remaining binding at 1 µM (MKK7): 99% | remaining binding at 1 µM [1]: 91% | remaining binding at 1 µM (LIMK1): 100% | remaining binding at 1 µM (ROCK1): 98% | remaining binding at 1 µM (ROS1): 68% | remaining binding at 1 µM (MEK3): 100% | remaining binding at 1 µM (EGFR(L861Q)): 85% | remaining binding at 1 µM (LZK): 83% | remaining binding at 1 µM (STK35): 100% | remaining binding at 1 µM (FLT3(D835H)): 93% | remaining binding at 1 µM (PIK3CA(H1047L)): 92% | remaining binding at 1 µM (HIPK4): 100% | remaining binding at 1 µM (CAMK2A): 100% | remaining binding at 1 µM (BUB1): 100% | remaining binding at 1 µM (FLT4): 87% | remaining binding at 1 µM [2]: 100% | remaining binding at 1 µM (PIK3CA(E542K)): 92% | remaining binding at 1 µM (MAP4K3): 90% | remaining binding at 1 µM (HIPK3): 100% | remaining binding at 1 µM (PIK3CA(Q546K)): 86% | AHNAK methylation (Western blot) (SMYD2): specifically reduced methylation of AHNAK; also recorded: inhibits concentration dependent | remaining binding at 1 µM (MYLK4): 100% | remaining binding at 1 µM (ALK(L1196M)): 92% | remaining binding at 1 µM (BIKE): 80% | remaining binding at 1 µM (KIT(V559D,V654A)): 100% | remaining binding at 1 µM (STK33): 83% | remaining binding at 1 µM (PRKCE): 92% | remaining binding at 1 µM (CAMK2B): 100% | remaining binding at 1 µM (MRCKB): 100% | remaining binding at 1 µM [3]: 85% | remaining binding at 1 µM (PLK4): 56% | remaining binding at 1 µM (ERBB3): 84% | remaining binding at 1 µM (SG110): 92% | remaining binding at 1 µM (FGFR4): 71% | remaining binding at 1 µM (ABL1-nonphosphorylated): 79% | remaining binding at 1 µM (TAOK3): 92% | remaining binding at 1 µM (CAMK1D): 90%
